Measured values as given in patent US20100137449A1, “SUBSTITUTED 1,3-CYCLOPENTADIONE MULTI-TARGET PROTEIN KINASE MODULATORS OF CANCER, ANGIOGENESIS AND THE INFLAMMATORY PATHWAYS ASSOCIATED THEREWITH” (METAPROTEOMICS, LLC, priority 2007, published 2010).

Tests used:
Assay in all cases: KinaseProfiler Assay
CaMKIV(h) = molecular target: T1, CaMKIV(h) (Homo sapiens, UniProt Q16566)
T1 sequence (Q16566 1-473): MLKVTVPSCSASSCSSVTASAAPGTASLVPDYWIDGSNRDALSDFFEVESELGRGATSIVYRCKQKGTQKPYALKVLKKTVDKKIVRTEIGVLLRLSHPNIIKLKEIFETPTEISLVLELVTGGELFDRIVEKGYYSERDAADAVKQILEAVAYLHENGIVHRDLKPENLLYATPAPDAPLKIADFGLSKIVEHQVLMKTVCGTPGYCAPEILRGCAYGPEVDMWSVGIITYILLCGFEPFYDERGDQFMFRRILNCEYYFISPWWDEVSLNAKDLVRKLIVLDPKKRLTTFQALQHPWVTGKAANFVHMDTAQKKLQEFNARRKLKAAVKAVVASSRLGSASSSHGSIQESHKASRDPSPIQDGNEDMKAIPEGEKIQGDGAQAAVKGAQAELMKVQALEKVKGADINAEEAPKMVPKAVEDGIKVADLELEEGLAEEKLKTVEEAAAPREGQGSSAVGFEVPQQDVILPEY

BrSK2(h) = molecular target: T2, BrSK2(h) (Homo sapiens, UniProt Q8IWQ3)
T2 sequence (Q8IWQ3 1-736): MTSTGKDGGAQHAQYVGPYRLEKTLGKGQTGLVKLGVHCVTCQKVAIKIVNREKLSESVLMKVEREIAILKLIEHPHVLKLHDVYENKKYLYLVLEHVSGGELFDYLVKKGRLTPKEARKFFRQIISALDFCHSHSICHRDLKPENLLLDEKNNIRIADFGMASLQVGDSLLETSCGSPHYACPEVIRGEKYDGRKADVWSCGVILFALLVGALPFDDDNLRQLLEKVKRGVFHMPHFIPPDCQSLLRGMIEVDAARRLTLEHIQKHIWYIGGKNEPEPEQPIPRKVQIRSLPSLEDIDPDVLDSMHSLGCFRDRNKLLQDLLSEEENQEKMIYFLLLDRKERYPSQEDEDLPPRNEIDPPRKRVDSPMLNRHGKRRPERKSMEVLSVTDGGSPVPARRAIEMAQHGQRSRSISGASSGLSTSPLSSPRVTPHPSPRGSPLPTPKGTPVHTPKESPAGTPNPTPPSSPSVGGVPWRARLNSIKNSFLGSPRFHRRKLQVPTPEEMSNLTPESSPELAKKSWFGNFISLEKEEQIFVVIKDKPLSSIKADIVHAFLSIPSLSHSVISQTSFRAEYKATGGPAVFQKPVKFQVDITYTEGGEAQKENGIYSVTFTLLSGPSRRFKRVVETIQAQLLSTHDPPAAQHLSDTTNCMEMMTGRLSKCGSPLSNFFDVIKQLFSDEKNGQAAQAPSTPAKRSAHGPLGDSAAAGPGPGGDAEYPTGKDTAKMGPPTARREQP

MKK4(m) = molecular target: T3, MKK4(m) (Mus musculus, UniProt P47809)
T3 sequence (P47809 1-397): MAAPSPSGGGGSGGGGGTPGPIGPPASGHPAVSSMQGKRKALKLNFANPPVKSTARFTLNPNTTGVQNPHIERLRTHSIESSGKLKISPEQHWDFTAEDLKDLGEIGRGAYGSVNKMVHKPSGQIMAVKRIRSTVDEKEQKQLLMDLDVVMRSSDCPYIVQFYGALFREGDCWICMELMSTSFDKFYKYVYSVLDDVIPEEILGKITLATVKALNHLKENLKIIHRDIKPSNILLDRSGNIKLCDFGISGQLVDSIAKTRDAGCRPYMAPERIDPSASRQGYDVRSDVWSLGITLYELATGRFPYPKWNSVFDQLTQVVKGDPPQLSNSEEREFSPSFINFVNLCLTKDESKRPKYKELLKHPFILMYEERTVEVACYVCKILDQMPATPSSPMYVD

ARK5(h) = molecular target: T4, ARK5(h) (Homo sapiens, UniProt O60285)
T4 sequence (O60285 1-661): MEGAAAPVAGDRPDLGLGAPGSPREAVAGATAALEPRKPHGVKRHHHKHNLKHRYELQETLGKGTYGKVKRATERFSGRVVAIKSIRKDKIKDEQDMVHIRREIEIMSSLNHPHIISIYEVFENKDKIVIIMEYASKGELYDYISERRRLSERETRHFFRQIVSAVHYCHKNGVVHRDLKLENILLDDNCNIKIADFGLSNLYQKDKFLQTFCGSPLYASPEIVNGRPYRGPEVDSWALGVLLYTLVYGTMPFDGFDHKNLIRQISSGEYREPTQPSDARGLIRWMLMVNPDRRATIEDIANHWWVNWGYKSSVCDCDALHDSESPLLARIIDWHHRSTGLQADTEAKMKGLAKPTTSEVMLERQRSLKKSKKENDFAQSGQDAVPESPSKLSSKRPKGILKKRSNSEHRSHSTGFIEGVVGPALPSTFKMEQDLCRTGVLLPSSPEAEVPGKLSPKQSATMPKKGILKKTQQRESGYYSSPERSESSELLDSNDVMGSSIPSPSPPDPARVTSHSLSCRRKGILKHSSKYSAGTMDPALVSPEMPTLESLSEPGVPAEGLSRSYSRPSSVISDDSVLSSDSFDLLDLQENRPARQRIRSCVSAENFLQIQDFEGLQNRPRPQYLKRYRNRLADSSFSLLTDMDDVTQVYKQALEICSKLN

Flt4(h) = Flt4(h) (Homo sapiens, UniProt P35916)
PAK6(h) = PAK6(h) (Homo sapiens, UniProt Q9NQU5)
Chain of PAK6(h) (Q9NQU5 whole entry): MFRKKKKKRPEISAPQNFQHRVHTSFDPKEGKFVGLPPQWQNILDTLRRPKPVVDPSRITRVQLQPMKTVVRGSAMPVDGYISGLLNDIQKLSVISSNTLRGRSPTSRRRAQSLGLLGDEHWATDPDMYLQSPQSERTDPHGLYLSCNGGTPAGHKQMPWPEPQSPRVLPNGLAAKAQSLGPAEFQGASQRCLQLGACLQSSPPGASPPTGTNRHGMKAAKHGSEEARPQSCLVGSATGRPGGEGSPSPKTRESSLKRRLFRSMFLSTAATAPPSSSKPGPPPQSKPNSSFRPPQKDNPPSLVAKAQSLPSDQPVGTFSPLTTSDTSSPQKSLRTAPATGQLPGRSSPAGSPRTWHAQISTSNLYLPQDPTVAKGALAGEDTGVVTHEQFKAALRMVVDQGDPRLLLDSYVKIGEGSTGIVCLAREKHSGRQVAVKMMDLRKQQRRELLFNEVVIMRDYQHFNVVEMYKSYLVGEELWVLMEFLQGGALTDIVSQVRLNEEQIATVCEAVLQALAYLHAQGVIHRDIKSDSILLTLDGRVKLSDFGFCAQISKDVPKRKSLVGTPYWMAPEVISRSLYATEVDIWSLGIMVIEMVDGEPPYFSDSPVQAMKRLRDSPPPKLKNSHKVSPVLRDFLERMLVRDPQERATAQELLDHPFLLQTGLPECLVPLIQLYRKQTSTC

Chain of Flt4(h) (P35916 25-1363): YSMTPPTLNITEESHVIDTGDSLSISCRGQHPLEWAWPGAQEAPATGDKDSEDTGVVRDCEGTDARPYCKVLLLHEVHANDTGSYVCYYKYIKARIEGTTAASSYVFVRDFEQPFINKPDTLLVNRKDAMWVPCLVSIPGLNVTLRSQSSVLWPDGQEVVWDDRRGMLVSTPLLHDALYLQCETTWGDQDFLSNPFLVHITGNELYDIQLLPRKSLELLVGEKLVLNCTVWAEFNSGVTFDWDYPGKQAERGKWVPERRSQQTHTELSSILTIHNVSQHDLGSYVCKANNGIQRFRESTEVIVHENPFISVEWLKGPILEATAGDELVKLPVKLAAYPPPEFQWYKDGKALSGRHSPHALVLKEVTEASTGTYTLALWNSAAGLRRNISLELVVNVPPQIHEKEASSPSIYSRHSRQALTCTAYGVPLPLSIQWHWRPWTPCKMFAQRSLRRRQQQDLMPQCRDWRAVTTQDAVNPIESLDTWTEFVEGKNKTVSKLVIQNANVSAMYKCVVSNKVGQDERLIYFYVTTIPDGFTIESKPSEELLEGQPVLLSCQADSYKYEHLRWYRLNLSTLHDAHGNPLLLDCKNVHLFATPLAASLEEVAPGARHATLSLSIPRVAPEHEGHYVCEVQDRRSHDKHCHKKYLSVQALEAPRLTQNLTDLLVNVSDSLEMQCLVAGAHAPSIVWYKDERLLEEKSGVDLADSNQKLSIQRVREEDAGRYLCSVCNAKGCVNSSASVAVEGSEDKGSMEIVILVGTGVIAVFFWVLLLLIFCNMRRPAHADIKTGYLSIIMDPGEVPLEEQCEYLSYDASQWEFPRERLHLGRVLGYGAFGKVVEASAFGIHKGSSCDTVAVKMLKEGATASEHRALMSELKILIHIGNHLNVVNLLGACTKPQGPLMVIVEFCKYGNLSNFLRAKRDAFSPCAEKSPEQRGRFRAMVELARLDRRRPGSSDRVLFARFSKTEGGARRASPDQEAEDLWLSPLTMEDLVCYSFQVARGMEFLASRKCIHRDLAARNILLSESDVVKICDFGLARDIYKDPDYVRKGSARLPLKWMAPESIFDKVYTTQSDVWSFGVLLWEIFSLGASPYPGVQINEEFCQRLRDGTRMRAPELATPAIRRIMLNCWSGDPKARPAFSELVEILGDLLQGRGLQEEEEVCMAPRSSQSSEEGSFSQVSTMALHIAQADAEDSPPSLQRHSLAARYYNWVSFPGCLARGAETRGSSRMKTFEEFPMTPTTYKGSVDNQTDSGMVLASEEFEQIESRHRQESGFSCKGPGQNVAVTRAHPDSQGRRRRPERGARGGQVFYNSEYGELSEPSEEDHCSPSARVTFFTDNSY

CC(C)CCC(=O)[C@]1(O)C(O)=C(C(=O)C(C)C)C(=O)[C@H]1CCC(C)C [TH2, tetrahydroiso-cohumulone]
kinase inhibition (CaMKIV(h); 1 μg/ml): 117% of control
kinase inhibition (CaMKIV(h); 5 μg/ml): 126% of control
kinase inhibition (CaMKIV(h); 25 μg/ml): 86% of control
kinase inhibition (CaMKIV(h); 50 μg/ml): 69% of control
kinase inhibition (CaMKIV(h); 100 μg/ml): 52% of control
kinase inhibition (BrSK2(h); 1 μg/ml): 99% of control
kinase inhibition (BrSK2(h); 5 μg/ml): 90% of control
kinase inhibition (BrSK2(h); 25 μg/ml): 84% of control
kinase inhibition (BrSK2(h); 50 μg/ml): 83% of control
kinase inhibition (BrSK2(h); 100 μg/ml): 72% of control
kinase inhibition (MKK4(m); 1 μg/ml): 120% of control
kinase inhibition (MKK4(m); 5 μg/ml): 127% of control
kinase inhibition (MKK4(m); 25 μg/ml): 91% of control
kinase inhibition (MKK4(m); 50 μg/ml): 95% of control
kinase inhibition (MKK4(m); 100 μg/ml): 85% of control
kinase inhibition (ARK5(h); 1 μg/ml): 103% of control
kinase inhibition (ARK5(h); 5 μg/ml): 104% of control
kinase inhibition (ARK5(h); 25 μg/ml): 99% of control
kinase inhibition (ARK5(h); 50 μg/ml): 77% of control
kinase inhibition (ARK5(h); 100 μg/ml): 74% of control
kinase inhibition (Flt4(h); 1 μg/ml): 117% of control
kinase inhibition (Flt4(h); 5 μg/ml): 113% of control
kinase inhibition (Flt4(h); 25 μg/ml): 88% of control
kinase inhibition (Flt4(h); 50 μg/ml): 80% of control
kinase inhibition (Flt4(h); 100 μg/ml): 55% of control
kinase inhibition (PAK6(h); 1 μg/ml): 85% of control
kinase inhibition (PAK6(h); 5 μg/ml): 113% of control
kinase inhibition (PAK6(h); 25 μg/ml): 90% of control
kinase inhibition (PAK6(h); 50 μg/ml): 89% of control
kinase inhibition (PAK6(h); 100 μg/ml): 42% of control
